Tests used:
Conditions in all cases: treatment: drug alone; 5 days
UO-31 [1] = test: minimum viability across doses, drug alone, relative to DMSO (fraction); higher = less growth inhibition
Description: (§1)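 Primary HTS: 8 RCC cell lines treated with 8 doses (up to 10 uM) of each library drug alone for 5 days; viability read by CellTiter-Glo and normalised to DMSO. GI50 was fitted with XLfit (4-parameter), AUC is the area under the dose-response curve, and minimum viability is the lowest fraction of DMSO viability across doses.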

A498 [2] = test: as above
Description: as §1

CAKI-1 [3] = test: as above
Description: as §1

TK-10 [4] = test: as above
Description: as §1

SN12C [5] = test: as above
Description: as §1

786-O [6] = test: as above
Description: as §1

ACHN [7] = test: as above
Description: as §1

769-P [8] = test: as above
Description: as §1

UO-31 [9] = test: AUC of dose-response viability curve, drug alone (arbitrary (AUC of normalised viability)); higher = less growth inhibition
Description: as §1

A498 [10] = test: as above
Description: as §1

CAKI-1 [11] = test: as above
Description: as §1

TK-10 [12] = test: as above
Description: as §1

SN12C [13] = test: as above
Description: as §1

786-O [14] = test: as above
Description: as §1

ACHN [15] = test: as above
Description: as §1

769-P [16] = test: as above
Description: as §1

UO-31 [17] = test: GI50, drug alone; higher = less potent
Description: as §1

A498 [18] = test: GI50, drug alone; higher = less potent
Description: as §1

CAKI-1 [19] = test: GI50, drug alone; higher = less potent
Description: as §1

TK-10 [20] = test: GI50, drug alone; higher = less potent
Description: as §1

SN12C [21] = test: GI50, drug alone; higher = less potent
Description: as §1

786-O [22] = test: GI50, drug alone; higher = less potent
Description: as §1

ACHN [23] = test: GI50, drug alone; higher = less potent
Description: as §1

769-P [24] = test: GI50, drug alone; higher = less potent
Description: as §1

SMILES | GI50, drug alone (786-O [22]) [µM] | GI50, drug alone (ACHN [23]) [µM] | minimum viability across doses (UO-31 [1]) | minimum viability across doses (A498 [2]) | minimum viability across doses (CAKI-1 [3]) | minimum viability across doses (TK-10 [4]) | minimum viability across doses (SN12C [5]) | minimum viability across doses (786-O [6]) | minimum viability across doses (ACHN [7]) | minimum viability across doses (769-P [8]) | AUC of dose-response viability curve (UO-31 [9]) | AUC of dose-response viability curve (A498 [10]) | AUC of dose-response viability curve (CAKI-1 [11]) | AUC of dose-response viability curve (TK-10 [12]) | AUC of dose-response viability curve (SN12C [13]) | AUC of dose-response viability curve (786-O [14]) | AUC of dose-response viability curve (ACHN [15]) | AUC of dose-response viability curve (769-P [16]) | GI50, drug alone (UO-31 [17]) [µM] | GI50, drug alone (A498 [18]) [µM] | GI50, drug alone (CAKI-1 [19]) [µM] | GI50, drug alone (TK-10 [20]) [µM] | GI50, drug alone (SN12C [21]) [µM] | GI50, drug alone (769-P [24]) [µM]
Cc1ccc(NC(=O)c2ccc(CN3CCN(C)CC3)cc2)cc1Nc1nc(-c2cccnc2)cs1 [Masitinib (AB1010)] | 5.57 | 9.54 | 1 | 0.635 | 0.784 | 0.651 | 0.292 | 0.168 | 0.482 | 0.749 | 4.02 | 3.2 | 3.47 | 3.39 | 3.01 | 3.22 | 3.23 | 3.32 | > 10 | > 10 | > 10 | > 10 | 5.8 | > 10
CC1(C)CNc2cc(NC(=O)c3cccnc3NCc3ccncc3)ccc21.O=P(O)(O)O.O=P(O)(O)O [Motesanib Diphosphate] | > 10 | > 10 | 0.976 | 0.86 | 0.756 | 0.757 | 0.832 | 0.777 | 0.818 | 0.943 | 4.68 | 3.77 | 3.36 | 3.09 | 3.19 | 3.26 | 3.4 | 3.53 | > 10 | > 10 | > 10 | > 10 | > 10 | > 10
Nc1ncnc2c1c(-c1cccc(OCc3ccccc3)c1)cn2[C@H]1C[C@H](CN2CCCC2)C1 [NVP-ADW742] | 5.94 | 3.35 | 0.0137 | 0.377 | 0.362 | 0.329 | 0.612 | 0.19 | 0.275 | 0.478 | 3.24 | 3.59 | 3.01 | 2.63 | 3.2 | 2.71 | 2.38 | 3.14 | 8.26 | 9.56 | 6.48 | 5.26 | > 10 | > 10
Cc1ccc(C(=O)Nc2cccc(C(F)(F)F)c2)cc1Nc1nc(-c2cccnc2)nc2c1cnn2C [NVP-BHG712] | 0.809 | 1.9 | 0.00612 | 0.023 | 0.0328 | 0.0678 | 0.0886 | 0.00203 | 0.109 | 0.06 | 5.14 | 3.97 | 3.03 | 2.45 | 3.15 | 2.18 | 2.89 | 3.13 | 8.28 | 8.45 | 2.45 | 1.34 | 4.56 | 3.81
Cl.Cl.Fc1cc(-c2cccc3ncc(-c4cnn(C5CCNCC5)c4)nc23)cc(F)c1CN1CCOCC1 [NVP-BSK805] | 3.95 | 1.6 | 0.00823 | 0.0305 | 0.0193 | 0.212 | 0.331 | 0.00287 | 0.0296 | 0.0465 | 4.15 | 3.8 | 2.74 | 2.63 | 2.87 | 2.23 | 2.62 | 3.09 | 8.51 | 7.77 | 2.39 | 3.4 | 7.39 | 5.73

The next lines start with results.

GI50, drug alone (786-O [22]) [µM] | GI50, drug alone (ACHN [23]) [µM] | SMILES | minimum viability across doses (UO-31 [1]) | minimum viability across doses (A498 [2]) | minimum viability across doses (CAKI-1 [3]) | minimum viability across doses (TK-10 [4]) | minimum viability across doses (SN12C [5]) | minimum viability across doses (786-O [6]) | minimum viability across doses (ACHN [7]) | minimum viability across doses (769-P [8]) | AUC of dose-response viability curve (UO-31 [9]) | AUC of dose-response viability curve (A498 [10]) | AUC of dose-response viability curve (CAKI-1 [11]) | AUC of dose-response viability curve (TK-10 [12]) | AUC of dose-response viability curve (SN12C [13]) | AUC of dose-response viability curve (786-O [14]) | AUC of dose-response viability curve (ACHN [15]) | AUC of dose-response viability curve (769-P [16]) | GI50, drug alone (UO-31 [17]) [µM] | GI50, drug alone (A498 [18]) [µM] | GI50, drug alone (CAKI-1 [19]) [µM] | GI50, drug alone (TK-10 [20]) [µM] | GI50, drug alone (SN12C [21]) [µM] | GI50, drug alone (769-P [24]) [µM]
0.523 | 1.83 | O=C(O)c1ccc(Nc2ncc3c(n2)-c2ccc(Cl)cc2C(c2c(F)cccc2F)=NC3)cc1 [MLN8054] | 0.748 | 0.562 | 0.4 | 0.668 | 0.427 | 0.038 | 0.246 | 0.365 | 3.59 | 3.53 | 2.84 | 2.93 | 3.01 | 2.52 | 2.48 | 2.85 | > 10 | > 10 | 3.18 | > 10 | 6.21 | 5.56
0.0711 | 0.207 | COc1cc(Nc2ncc3c(n2)-c2ccc(Cl)cc2C(c2c(F)cccc2OC)=NC3)ccc1C(=O)O [MLN8237 (Alisertib)] | 0.531 | 0.569 | 0.221 | 0.492 | 0.458 | 0.0512 | 0.194 | 0.316 | 3.14 | 3.27 | 2.31 | 2.78 | 2.85 | 1.47 | 1.81 | 2.44 | > 10 | > 10 | 0.67 | 7.87 | 3.14 | 0.888
0.0329 | 0.116 | FC(F)(F)c1ccc(/C=C/c2nc(COc3ccc(CCCCn4ccnn4)cc3)co2)cc1 [Mubritinib (TAK 165)] | 0.033 | 0.151 | 0.765 | 0.21 | 0.0401 | 0.0382 | 0.125 | 0.586 | 1.39 | 2.12 | 2.96 | 1.78 | 1.14 | 1.04 | 1.78 | 2.86 | 0.058 | 0.154 | > 10 | 0.147 | 0.0429 | > 10
0.0129 | 0.0149 | COc1ccc(-c2ccc3ncc4c(c3c2)n(-c2ccc(N3CCNCC3)c(C(F)(F)F)c2)c(=O)n4C)cn1.O=C(O)/C=C\C(=O)O [NVP-BGT226] | 0.00819 | 0.0133 | 0.00344 | 0.00394 | 0.00358 | 0.00447 | 0.00135 | 0.00969 | 0.578 | 1.21 | 1.03 | 0.903 | 0.857 | 0.728 | 0.785 | 1.22 | 0.0113 | 0.0291 | 0.0272 | 0.0202 | 0.0158 | 0.0362
